In patent publication US20220193021A1 (priority 2019, published 2022):
Structures can show the parent of a compound that is named as a salt.

Experiments:
Type in all cases: cell-based
[1] = test system: influenza virus protein hemagglutinin 0 (HA0)
[2] = test system: serine proteases (TMPRSS4, TMPRSS11D, TMPRSS2, and DESC1); experiment: mRNA levels of serine proteases in human lung airway chips; conditions: 10 μM versus vehicle
[3] = test system: serine proteases (TMPRSS4, TMPRSS11D, TMPRSS2, and DESC1); experiment: Protein levels of serine proteases in human lung airway chips; conditions: 10 μM versus vehicle
From the text: Protein levels of chips treated with nafamostat mesylate are relative to chips not treated with nafamostat mesylate.

influenza virus = test system: influenza virus

SMILES | effect on the cleavage of HA0 [1] | effect on mRNA expression of serine proteases [2] | effect on protein expression of serine proteases [3] | therapeutic window (influenza virus)
N=C(N)c1ccc2cc(OC(=O)c3ccc(N=C(N)N)cc3)ccc2c1 [nafamostat mesylate] | efficiently block | no effect | no effect | 
CCOC(=O)C1=C[C@@H](OC(CC)CC)[C@H](NC(C)=O)[C@@H](N)C1 [oseltamivir] |  |  |  | approximately 48 hours
